One data set concerns the target T1, human glucagon receptor (Homo sapiens, UniProt P47871).
T1 construct: expressed in transfected cells; host or cells: BHK cells (parent BHK570, CRE luciferase clone BHK/KZ10-20-48), clone pLJ6'-4-25
Kind of data set: Glucagon receptor potency, CRE luciferase reporter gene assay in BHK cells. In kind it is cell-based. The conditions noted are these: BHK cells expressing human glucagon receptor, read-out: EC50 GlucR. On the procedure:
The purpose of this example was to test the potency, of the glucagon derivatives of the invention, in vitro. The in vitro potency is the measure of human GLP-1 receptor or glucagon receptor activation, respectively, in a whole cell assay.
In vitro potency was determined by measuring the response of human GLP-1 or glucagon receptor, respectively, in a reporter gene assay. The assay was performed in a stably transfected BHK cell line that expresses either the human GLP-1 receptor or the human glucagon receptor and contains the DNA for the cAMP response element (CRE) coupled to a promoter and the gene for firefly luciferase (CRE luciferase). […] When assay incubation was completed, the luciferase substrate (luciferin) was added and the enzyme converted luciferin to oxyluciferin and produces bioluminescence. The luminescence was measured as the readout for the assay.
The cells used in this assay (clone pLJ6′-4-25) were BHK cells with BHK570 as a parent cell line expressing the CRE luciferase gene (clone BHK/KZ10-20-48) and were established by further transfection with the human glucagon receptor (clone pLJ6′ in pHZ-1 vector).
The cells were cultured at 5% CO2 in DMEM medium with 10% FBS, 1×GlutaMAX, 1 mg/ml G418, 240 nM MTX (methotrexate) and 1% pen/strep (penicillin/streptomycin). They were aliquoted and stored in liquid nitrogen. Before each assay, an aliquot was taken up and washed three times in PBS before being suspended at the desired concentration in assay medium. For 96-well plates the suspension was made to give a final concentration of 5×10EE3 cells/well.
The following chemicals were used in the assay: Pluronic F-68 (10%) (Gibco 2404), ovalbumin (Sigma A5503), DMEM w/o phenol red (Gibco 11880-028), 1 M Hepes (Gibco 15630), Glutamax 100× (Gibco 35050) and steadylite plus (PerkinElmer 6016757).
Assay Medium consisted of DMEM w/o phenol red, 10 mM Hepes, 1× GlutaMAX, 2% Ovalbumin and 0.2% Pluronic F-68.
Cell stocks were thawed in a 37° C. water bath. Cells were washed three times in PBS. The cells were counted and adjusted to 5×10EE3 cells/50 μl (1×10EE5 cells/ml) in Assay Medium. A 50 μl aliquot of cells was transferred to each well in the assay plate.
Stocks of the test compounds and reference compounds were diluted to a concentration of […] in Assay Medium. Compounds were diluted 10-fold to give the following concentrations: 2×10EE-6 M, 2×10EE-7 M, 2×10EE-8 M; 2×10EE-9 M, 2×10EE-10 M, 2×10EE-11 M, 2×10EE-12 M and 2×10EE-13 M. For each compound a blank assay medium control was also included.
A 50 μl aliquot of compound or blank was transferred from the dilution plate to the assay plate. Compounds were tested at the following final concentrations: 1×10EE-6 M, 1×10EE-7 M, 1×10EE-8 M; 1×10EE-9 M, 1×10EE-10 M, 1×10EE-11 M and 1×10EE-12 M and 1×10EE-13 M.
The assay plate was incubated for 3 h in a 5% CO2 incubator at 37° C. The assay plate was removed from the incubator and allowed to stand at room temperature for 15 min. A 100 μl aliquot of steadylite plus reagent was added to each well of the assay plate (reagent is light sensitive). Each assay plate was covered with aluminum foil to protect it from light and shaken for 30 min at room temperature. Each assay plate was read in a Perkin Elmer TopCount NXT instrument.
The data from the TopCount instrument was transferred to GraphPad Prism software. The software performed a non-linear regression (log(agonist) vs response-Variable slope (four parameter)). EC50 values were calculated by the software and reported in pM.
(Reporter assays use an easily measured gene product as a stand-in for the process of interest.)

Data set [1] in a line: Thioflavin T (ThT) fibrillation assay for physical stability. The conditions noted are these: 250 μM in 10 mM HEPES buffer, pH 7.5, 37° C., shaking 960 rpm. In kind it is physicochemical. Put shortly: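 Fibrillation was followed by ThT (1 μM) fluorescence every 20 min, 444/485 nm, for 250 μM peptide in 10 mM HEPES pH 7.5 shaken at 960 rpm, 37° C. Lag time (t0−2τ) and apparent rate constant (1/τ) come from a sigmoidal fit. Recovery is % of initial concentration remaining soluble after centrifugation and filtration (RP-HPLC).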

A short description of data set [2]: Chemical stability assessment by RP-UPLC. In kind it is physicochemical. The conditions noted are these: 333 μM, 8 mM phosphate buffer pH 7.3, 37° C. vs 5° C. On the procedure:
The purpose of this assay was to assess the chemical stability of the glucagon derivatives of the invention in aqueous solutions.
Chemical stability of glucagon derivatives or analogues was investigated by RP-UPLC separation and UV detection. Lyophilized samples were dissolved in a 8 mM Phosphate buffer pH 8.6, followed by adjustment to pH 7.3.using HCl to a final concentration of 333 μM. Samples were incubated for 14 days at 5° C. and 37° C. followed by RP-UPLC analysis. Purity was defined as the area percentage of the main peak in relation to the total area of all integrated peaks in each chromatogram. Purity loss after 14 days at 37° C. was determined as the difference in purity between the samples incubated at 5° C. and 37° C., divided by the purity of the sample after incubation for 14 days at 5° C.
RP-UPLC analysis was performed using a Waters BEH130 2.1 mm×150 mm, 1.7 μm column operated at 50° C. and a flow rate of 0.4 mL/min using a mobile phase system consisting of A: 0.05% TFA in MQ-water B: 0.05% TFA in Acetonitrile. UV-detection was performed at 215 nm. The typical gradient profile used for most of the samples is shown below.
For some individual derivatives or analogues eluting at substantially different retention times compared with the majority of derivatives or analogues, some adjustments to the gradient profile were made to better enable purity assessment comparison across samples. The data confirmed the improved chemical stability of the glucagon derivatives of this invention.

Numbered stars: 1 amine (or outer) side, 2 acyl side, 3 side chain; on linkers, the order of the positions; unused ones are H or OH. Square brackets hold non-standard residues; d marks the D form. Side chains are listed from the residue outwards. Peptide text beside a SMILES is read from it. * marks the point of attachment. C18 diacid = O=C(O)CCCCCCCCCCCCCCCCC(=O)*; γGlu = O=C(O)[C@H](CCC(=O)[*:2])N[*:1]; AEEA = NCCOCCOCC(=O)O; Aib = CC(C)(N)C(=O)O

T1 sequence (P47871 26-477): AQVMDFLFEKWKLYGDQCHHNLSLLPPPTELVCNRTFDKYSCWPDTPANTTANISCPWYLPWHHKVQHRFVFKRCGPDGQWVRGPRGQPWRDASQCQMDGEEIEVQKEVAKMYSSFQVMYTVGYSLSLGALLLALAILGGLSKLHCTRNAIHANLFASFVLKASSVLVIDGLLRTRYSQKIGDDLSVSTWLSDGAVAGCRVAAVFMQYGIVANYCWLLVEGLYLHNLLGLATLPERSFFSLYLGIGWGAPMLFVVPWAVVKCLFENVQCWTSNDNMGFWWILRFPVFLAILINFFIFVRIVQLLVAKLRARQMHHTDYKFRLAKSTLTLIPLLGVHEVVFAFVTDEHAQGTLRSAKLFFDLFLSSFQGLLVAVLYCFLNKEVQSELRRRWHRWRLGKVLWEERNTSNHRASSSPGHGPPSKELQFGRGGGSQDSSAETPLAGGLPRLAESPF

As for `CC(C)C[C@H](NC(=O)[C@H](CC(C)C)NC(=O)[C@H](Cc1c[nH]c2ccccc12)NC(=O)[C@H](CCC(N)=O)NC(=O)[C@@H](NC(=O)[C@H](Cc1ccccc1)NC(=O)[C@H](CCC(=O)O)NC(=O)[C@H](CCCNC(=N)N)NC(=O)[C@H](C)NC(=O)[C@H](CCCNC(=N)N)NC(=O)[C@H](CCCNC(=N)N)NC(=O)[C@H](CC(C)C)NC(=O)[C@H](CC(=O)O)NC(=O)[C@H](CC(C)C)NC(=O)[C@H](Cc1ccc(O)cc1)NC(=O)[C@H](CCCCN)NC(=O)[C@H](CO)NC(=O)[C@H](CC(C)C)NC(=O)[C@H](CC(=O)O)NC(=O)[C@H](CO)NC(=O)[C@@H](NC(=O)[C@H](Cc1ccccc1)NC(=O)[C@@H](NC(=O)CNC(=O)[C@H](CCC(N)=O)NC(=O)C(C)(C)NC(=O)[C@@H](N)Cc1c[nH]cn1)[C@@H](C)O)[C@@H](C)O)C(C)C)C(=O)N[C@@H](CC(N)=O)C(=O)N[C@@H](CCCCNC(=O)CC[C@H](NC(=O)CC[C@H](NC(=O)COCCOCCNC(=O)CC[C@H](NC(=O)CCCCCCCCCCCCCCCCC(=O)O)C(=O)O)C(=O)O)C(=O)O)C(N)=O` [Example 38, N^ε29-[(4S)-4-carboxy-4-[[(4S)-4-carboxy-4-[[2-[2-[2-[[(4S)-4-carboxy-4-(17-carboxyheptadecanoylamino)butanoyl]amino]ethoxy]ethoxy]acetyl]amino]butanoyl]amino]butanoyl]-[Aib2,Leu10,Leu16,Arg20,Glu21,Leu27,Lys29]-Glucagon amide] (H-H[Aib]QGTFTSDLSKYLDLRRAREFVQWLLNK([γGlu-γGlu-AEEA-γGlu-C18 diacid])-NH2; N-terminus assumed), the EC50 on human glucagon receptor came to 0.024 nM. The THT assay Lag time (Ex. 76) in data set [1] was 45 h. The “Purity loss; 14 days at 37° C.” value in data set [2] is 2%.

A word on the EC50: it is the concentration at which the effect is half-maximal.

Source of the values: patent publication US9474790B2, “Stable, protracted GLP-1/glucagon receptor co-agonists for medical use” (Novo Nordisk A/S, priority 2013, dated 2016).
